Tests used:
[1] = system: cultured cortical cells of the rat; assay: L-glutamate excitotoxicity in cultured cortical cells, cell death by LDH release (Tests 1 and 2); format: cell-based; settings: active ingredient 500 nm plus 10 nm L-glutamate; after 10, 30 and 60 minutes compared with the control group (FIG. 1, FIG. 2)
Procedure: Dissociated cortical cells from 16-18 day old fetal rats were bred in 35 mm dishes. The nutrient medium contained during the first 7 days L-lutamine (4 mM), glucose (6 g/l), penicillin (100 U/ml), streptomycin (100 μg/ml) and 10% hormonally enriched medium, which [contained] transferrin (1 mg/ml), insulin (250 μg/ml), putrescine (600 μM), sodium selenite (0.3 μM), progesterone (0.2 μM) and estradio (0.1 μM). The dishes were stored in an atmosphere (5% CO2 and […]) heated to 37 degrees Celsius.
To form the control group (Series 1), half of the dishes were supplemented with the nutrient medium 10 nm L-glutamate and incubated under normotoxic conditions for 4 hours.
To determine the neuroprotective properties, the other half of the dishes were supplemented with the nutrient medium flunitrazepam 500 nm and 10 nm L-glutamate (Series 2) and likewise incubated under normotoxic conditions.
The number of surviving or devitalized cells was determined by determination of the amount of lactate-dehydrogenase (LDH) ejected into the cell medium. The LDH activity was determined photospectrometrically by measurement of the NADH metabolism at 340 nm. […]
In the diagrams of FIG. 1 and FIG. 2 the measured values were entered as follows: The measured value describes the number of dead cells after the test in relation to the total number of cells before the test in percent. […]

[2] = Properties of the active ingredients (solubility, lipophilicity); format: physicochemical

SMILES	number of dying cells [1]	water solubility [2]
CN1C(=O)CN=C(c2ccccc2F)c2cc([N+](=O)[O-])ccc21 [flunitrazepam]	reduction in the number of dying cells	
Cc1ncc2n1-c1ccc(Cl)cc1C(c1ccccc1F)=NC2 [Midazolam]		water-soluble
COCc1c(C(=O)OC(C)C)ncc2[nH]c3ccc(OCc4ccccc4)cc3c12 [abecamil, abecarnil]	reduction in the number of dying cells	

Reference: US20040102438A1, “Gaba-receptor modulators for the treatment of neurodegenerative diseases of the eye” (priority 2001, published 2004)
